One data set concerns MCF-7. Kind of data set: MTT cytotoxicity assay, 72 h. The class given is cell-based, human. The following applies: for IC50: Homo sapiens, MCF7, 72 h, MTT, 72 h, IC50 ± SD; for Selectivity Index (SI) MRC-5/MCF-7: IC50 in MRC-5 / IC50 in MCF-7. The procedure:
(§1) In our study, the human cancer cell lines used were CFAPC- 1 (pancreatic adenocarcinoma); NCI-H460 (large cell lung); HL-60 (acute promyelocytic leukaemia); CACO2 (colorectal adenocarcinoma); HCT-116 (colorectal carcinoma); K562 (chronic myeloid leukaemia); MCF-7 (breast adenocarcinoma); and MRC-5 control cells (normal fibroblasts).
(§2) CFAPC-1, NCI-H460 H1975, HL-60, HCT-116, CACO2, K562, MCF-7, and MCR-5 were grown and maintained in RPMI 1640 and DMEM F12 as appropriate with 10% fetal bovine serum, 100 UI/mL penicillin–streptomycin, and cultured al 37 °C in 5% CO2 humidified atmosphere. Control cultures were treated with dimethyl sulfoxide (1%) alone at the same concentration as in the purine derivatives treatment. Cell viability was determined by trypan blue dye exclusion. Cell numbers were counted in hemocytometer by light microscopy.
(§3) Cytotoxicity assays were performed by using the MTT reduction method as described in the literature. Briefly, cancer cell lines were plated in a flat-bottom 96-wells plate at 1 × 10^4 cells per well density. Then, the cells were incubated with synthetized compounds at different concentrations (from 0.1 to 100 µM) in 200 µL of 10% fetal bovine serum-RPMI or EMEM culture medium at 37 °C for 72 h. Then, 10 µL of MTT was added at a final concentration of 0.5 mg/mL, incubated at 37 °C for 4 h, and then solubilized with 10% sodium dodecyl sulphate (SDS) in 0.1 mM HCl and incubated overnight at 37 °C. Formazan formation was measured at 570 nm in a multi-well reader (StatFax 4200).

The subject of the next data set is HCT-116. Kind of data set: MTT cytotoxicity assay, 72 h. The class given is cell-based, human. Particulars: Homo sapiens, HCT-116, IC50 ± SD. The procedure: as §1, §2, §3
Another data set has as its system K562. Nature of the data set: MTT cytotoxicity assay, 72 h. The class given is cell-based, human. The following applies: for IC50: MTT, 72 h, IC50 ± SD; for Selectivity Index (SI) MRC-5/K562: IC50 in MRC-5 / IC50 in K562. The procedure:
as §1, §2, §3
A general note: Tetrazolium dyes change colour on reduction, which living cells bring about.

The next data set deals with CFPAC-1. Kind of data set: MTT cytotoxicity assay, 72 h. The class given is cell-based, human. The following applies: Homo sapiens, CFPAC-1, IC50 ± SD. The procedure:
as §1, §2, §3

The next data set relates to HL-60. Nature of the data set: MTT cytotoxicity assay, 72 h. In kind it is cell-based, human. The following applies: for IC50: Homo sapiens; for Selectivity Index (SI) MRC-5/HL-60: IC50 in MRC-5 / IC50 in HL-60. The procedure:
as §1, §2, §3

A further data set relates to NCI-H460. Nature of the data set: MTT cytotoxicity assay, 72 h. In kind it is cell-based, human. The following applies: for Selectivity Index (SI) MRC-5/NCI-H460: IC50 in MRC-5 / IC50 in NCI-H460. The procedure: as §1, §2, §3
The subject of the next data set is MRC-5. Kind of data set: MTT cytotoxicity assay, 72 h, normal control cells. In kind it is cell-based, human. The following applies: Homo sapiens, MRC5, IC50 ± SD, normal fibroblasts. The method, then: as §1, §2, §3
The test system of another data set is CACO2. Nature of the data set: MTT cytotoxicity assay, 72 h. The class given is cell-based, human. Particulars: Homo sapiens, Caco-2, IC50 ± SD.
In another data set the test system is pERK1/2. Kind of data set: Western blotting of pERK1/2 in MCF-7 cells. The class given is cell-based, human. The following applies: 10 µM, 1 h. The method, then: Cell lysates were prepared by harvesting cells in Laemmli sample buffer. Proteins were separated on SDS polyacrylamide gels and electroblotted onto nitrocellulose membranes. After blocking, the membranes were incubated with specific primary antibodies overnight, washed, and then incubated with peroxidase-conjugated secondary antibodies. Finally, peroxidase activity was detected with SuperSignal West Pico reagents (Thermo Scientific, Waltham, MA, USA) using a CCD camera LAS-4000 (Fujifilm). Specific antibodies were purchased from Sigma-Aldrich (anti-α-tubulin, clone DM1A; peroxidase-labeled secondary antibodies) and Cell Signaling (anti-PARP, clone 46D11; anti-ERK1/2; anti-phospho-ERK1/2 T202/Y204).
(In general: A western blot detects proteins with antibodies after separation by electrophoresis.)

For another data set, the system named is HL-60 cells. Nature of the data set: Cell viability by propidium iodide flow cytometry. The class given is cell-based, human. Particulars: HL-60, 50 μM, 24 h, PI staining. The text has this:
Next, in order to determinate the cell death type induced by the most promising compounds, we performed a flow cytometry analysis of cell viability in cell line HL-60 treated with the most promising compounds (selected according to their IC50 values and SI). The HL-60 cancer cells were chosen due to their sensitivity to prepared compounds. […] As a preliminary apoptosis filter, propidium iodide (PI) staining was used through flow cytometry analysis which discriminated a population of viable cells impermeable to PI (PI negative) from necrotic cells PI-permeable (PI positive) and apoptotic cells (the difference of the previous two). The results are shown in Figure 7, illustrating that all purine derivatives tested induced apoptosis on HL-60 cells. Around 40% of apoptotic cells were detected in a culture treated with compounds 7a and 7i, 30% by 7e, 7g, and 7h and 70% by 7d and 7j. […] (For dot plots, see Supplementary Information Figures S1–S3.)
Cell viability was analyzed by flow cytometry as previously described. In this assay, after setting the baseline to exclude cell debris, cells impermeable to propidium iodide (PI negative) are considered as viable. Two populations of PI-permeable dead cells are distinguished based on fluorescence intensity, corresponding to either hypodiploid apoptotic cells or necrotic cells with intact DNA. Here, HL60 cells were incubated with concentrations of 50 µM of each compound for 24 h at 37 °C. Cells were harvested and stained with 10 µg/mL of propidium iodide to determine cell viability. Samples containing roughly 1 × 10^4 cells were evaluated by flow cytometry (FACScanto II; Becton Dickinson, Mountain View, CA) and analyzed using FCS Express v6 software. Three independent biological replicates were performed.
For orientation: Flow cytometry measures light scatter and fluorescence of single cells or particles in a stream.

The subject of another data set is MCF7 cells. Kind of data set: Cell cycle distribution of MCF7 cells. The class given is cell-based, human. Particulars: Figure S5.
The next data set has as its system cancer cell lines. The following applies: cited from earlier work.
The next data set deals with p53. Kind of data set: p53-dependent transcriptional activity reporter assay (β-galactosidase) in Arn-8 cells. In kind it is cell-based, human. Particulars: Arn-8 cells, 24 h incubation, Table S3, control compound. The procedure: Table S3. Results of p53 activity of compounds 4a-u and 7a-j.
Compound fold p53 activity […]
p53-dependent transcriptional activity
To measure p53-dependent transcriptional activity, -galactosidase activity was determined in the human melanoma cell line Arn-8, stably transfected with a p53-responsive reporter construct pRGC foslacZ as described before. After 24 h incubation with the inhibitors, the cells were permeabilized with 0.3% Triton X-100 for 15 min, and then 4-methylumbelliferon-ß-D-galactopyranoside was added as a substrate to a final concentration of 80 µM. […]
fluorescence was measured at 355/460 nm (ex/em) with a Fluoroskan Ascent microplate reader […]
Figure S6. Dose-response effect of roscovitine on p53 activity in ARN8 cells (control experiment).
(1 picture or pasted object on this page, not shown here)

The target of data set [1] is Hedgehog (Hh) signaling pathway. More on the design: method as in PMID 24923765. The following applies: cited from earlier work.
The mark [2] stands for this setting: HL-60, 72 h, MTT, 72 h, IC50 ± SD, read-out: IC50 HL-60.
Where [3] appears, read: HL-60, -logIC50 in molar concentration, Table S1, read-out: Experimental pIC50 (HL-60) (converted).
Where [4] appears, read: Homo sapiens, NCI-H460, 72 h, MTT, 72 h, IC50 ± SD, read-out: IC50 NCI-H460.
[5] abbreviates: Homo sapiens, NCI-H460, -logIC50 in molar concentration, Table S2, read-out: Experimental pIC50 (NCI-H460) (converted).
[6] abbreviates: MTT, 72 h, IC50 ± SD, read-out: IC50 NCI-H460.

Read-outs that look alike come from different tables or passages of the source.

Protocol for CACO2: Cytotoxicity assays were performed by using the MTT reduction method as described in the literature [23, 37]. Briefly, cancer cell lines were plated in a flat-bottom 96-wells plate at 1 × 10^4 cells per well density. Then, the cells were incubated with synthetized compounds at different concentrations (from 0.1 to 100 µM) in 200 µL of 10% fetal bovine serum-RPMI or EMEM culture medium at 37 °C for 72 h. Then, 10 µL of MTT was added at a final concentration of 0.5 mg/mL, incubated at 37 °C for 4 h, and then solubilized with 10% sodium dodecyl sulphate (SDS) in 0.1 mM HCl and incubated overnight at 37 °C. Formazan formation was measured at 570 nm in a multi-well reader (StatFax 4200).

`FC(F)(F)c1ccc(N2CCN(c3nc(Cl)nc4c3ncn4C3CCCC3)CC2)nc1` [7c, 2-Chloro-9-cyclopentyl-6-(4-(5-(trifluoromethyl)pyridin-2-yl)piperazin-1-yl)-9H-purine]: the melting point (usually the temperature of the solid-liquid transition) lay within 160 to 162 °C. Moreover, in the data set with MCF-7, the IC50 worked out at 520 ± 50 nM and the “Selectivity Index (SI) MRC-5/MCF-7” value was found to be 107.7. The compound further yielded an IC50 in the data set on HCT-116 above 50000 nM. In the data set with K562 (Homo sapiens, K562, 72 h), the IC50 fell in the range of 400 to 1500 nM. In the data set on K562, the “Selectivity Index (SI) MRC-5/K562” value was 143.6 and the IC50 came out at 390 ± 30 nM. For the same compound, in the data set with CFPAC-1, the IC50 was above 100000 nM. In addition, the IC50 in the data set on HL-60 (setting [2]) was 17000 ± 2300 nM. The IC50 in the data set on HL-60 (setting [3]) is 17000 nM. Besides, the “Selectivity Index (SI) MRC-5/HL-60” value with HL-60 was found to be 3.3. Moreover, the IC50 with NCI-H460 (setting [4]) was determined as 4800 nM. In the data set with NCI-H460 (setting [5]), the IC50 was 4790 nM. Besides, in the data set on NCI-H460, the “Selectivity Index (SI) MRC-5/NCI-H460” value is reported as 11.7. The IC50 in the data set on NCI-H460 (setting [6]) is 4790 ± 70 nM. Further, the IC50 in the data set with MRC-5 turned out to be 56000 ± 1000 nM. This compound returned an IC50 in the data set on CACO2 above 100000 nM.

Turning to `Clc1ccc(N2CCN(c3nc(Cl)nc4c3ncn4C3CCCC3)CC2)cc1` [7g, 2-Chloro-6-(4-(4-chlorophenyl)piperazin-1-yl)-9-cyclopentyl-9H-purine], the “level of mitogenic transducer pERK1/2” value in the data set on pERK1/2 was “potently reduced”. Also, the IC50 was 970 ± 70 nM in the data set with MCF-7; above 50000 nM in the data set with HCT-116; 710 ± 70 nM with K562 (Homo sapiens, K562, 72 h); above 100000 nM in the data set on CFPAC-1; 300 ± 60 nM in the data set with HL-60 (setting [2]); 300 nM in the data set on HL-60 (setting [3]). Moreover, the IC50 is 2200 nM in the data set on NCI-H460 (setting [4]); 2210 nM in the data set with NCI-H460 (setting [5]); 2210 ± 30 nM with NCI-H460 (setting [6]); 2540 ± 170 nM in the data set on MRC-5; above 100000 nM with CACO2. Besides, the “Selectivity Index (SI) MRC-5/MCF-7” value in the data set with MCF-7 is recorded as 2.6. For the same compound, in the data set with K562, the “Selectivity Index (SI) MRC-5/K562” value came out at 3.6. Besides, the “Selectivity Index (SI) MRC-5/HL-60” value with HL-60 came out at 8.5. Also, in the data set with NCI-H460, the “Selectivity Index (SI) MRC-5/NCI-H460” value came to 1.1. The same compound registered an apoptotic cells in the data set on HL-60 cells of around 30%. The “population of MCF7 cells in the G1-phase” value in the data set with MCF7 cells is “slightly increased”.

Take `OC[C@H]1O[C@@H](n2cnc3c(N4CCN(c5ccc(C(F)(F)F)cc5)CC4)nc(Cl)nc32)[C@H](O)[C@@H]1O` [II]: the “IC50 on some cancer cell lines” value with cancer cell lines was “sub-micromolar”.

As to `FC(F)(F)c1ccc(N2CCN(c3ncnc4c3ncn4C3CCCC3)CC2)cc1` [I], the “IC50 on some cancer cell lines” value with cancer cell lines was “sub-micromolar”.

On to `CC[C@H](CO)Nc1nc(NCc2ccccc2)c2ncn(C(C)C)c2n1` [Roscovitine, reference compound], for which the “fold p53 activity” value in the data set with p53 is on record as 33.9.

In the case of `CCNCc1ccc(C)c(NC(=O)c2ccc(Nc3nc(-c4ccc(OC(F)(F)F)cc4)c4ncn(C)c4n3)cc2)c1` [V], in data set [1], the “IC50 in Gli-luciferase reporter assay” value is on record as “nanomolar scale”.

The record behind these values is article PMC6981454, “Promising 2,6,9-Trisubstituted Purine Derivatives for Anticancer Compounds: Synthesis, 3D-QSAR, and Preliminary Biological Assays” (International Journal of Molecular Sciences, 2019).
